# Laboratory results as given in patent publication US20260001914A1, “MACROCYCLIC PEPTIDES TARGETING KRAS” (Merck Sharp & Dohme LLC, priority 2022, published 2026).
# *1 amine or outer side, *2 acyl side, *3 side chain or, on linkers, in order; H or OH if unused. Where a SMILES comes first, the peptide text is derived from it. Bridges are numbered along the chain shown (N, C = ends). [ ]: non-standard residue; d: D form. Ala(1-bicyclo(1.1.1)pentyl) = N[C@@H](CC12CC(C1)C2)C(=O)O; NMeNva(5-imidazol-1-yl) = CN[C@@H](CCCn1ccnc1)C(=O)O; Ala(pyrimidin-5-yl) = N[C@@H](Cc1cncnc1)C(=O)O; NMe3Pal(6-Me) = CN[C@@H](Cc1ccc(C)nc1)C(=O)O; X6 = O=C([C@H](Cc1cnn(C2COC2)c1)N[*:1])[*:2]; X8 = CN([C@@H](Cc1ccc(F)nc1)C(=O)[*:2])[*:1]; Phe(2,6-F2) = N[C@@H](Cc1c(F)cccc1F)C(=O)O; X20 = CN([C@@H](Cc1cnco1)C(=O)[*:2])[*:1]; X25 = O=C([C@H](Cc1ccc(F)nc1)N[*:1])[*:2]; NMeNva(5,5-F2) = CN[C@@H](CCC(F)F)C(=O)O; X24 = O=C([C@H](Cc1ccncc1Cl)N[*:1])[*:2]; X11 = CC(C)(F)CC[C@H](N[*:1])C(=O)[*:2]; Nle(5,5-F2) = CC(F)(F)CC[C@H](N)C(=O)O; X2 = O=C([C@H](Cc1ccccc1F)O[*:1])[*:2]; X40 = CC(C)(F)C[C@H](N[*:1])C(=O)[*:2]; Ala(cPent) = N[C@@H](CC1CCCC1)C(=O)O; Phe(2-F) = N[C@@H](Cc1ccccc1F)C(=O)O; NMe3Pal = CN[C@@H](Cc1cccnc1)C(=O)O; X1 = O=C(C12CC(CN[*:1])(C1)C2)[*:2]; Aha = [N-]=[N+]=NCC[C@H](N)C(=O)O; Ala(cPr) = N[C@@H](CC1CC1)C(=O)O; NMeF = CN[C@@H](Cc1ccccc1)C(=O)O; PhLac = O=C(O)[C@@H](O)Cc1ccccc1; 3Pal = N[C@@H](Cc1cccnc1)C(=O)O; Ahp(2) = CCCCC[C@H](N)C(=O)O; Cba = N[C@@H](CC1CCC1)C(=O)O; NMeNle = CCCC[C@H](NC)C(=O)O; hLeu = CC(C)CC[C@H](N)C(=O)O; αMeC = C[C@](N)(CS)C(=O)O; NMeA = CN[C@@H](C)C(=O)O; Nle = CCCC[C@H](N)C(=O)O; Pra = C#CC[C@H](N)C(=O)O; Nva = CCC[C@H](N)C(=O)O
# Biological target: phosphorylation levels of ERK1/2 in AsPC-1 (homozygous KRAS-G12D) cells (Homo sapiens, UniProt P01116, G12D)
# Test: Cellular phospho-ERK assay in AsPC-1 cells (Alpha Screen), assay medium without fetal bovine serum;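 note: signal taken as phospho-ERK over total ERK per well, both detected in one multiplex bead assay, EC50 from four-parameter logistic fit of dose-response curves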
# Format: cell-based
# Settings: phospho-ERK AlphaScreen, 18 h
# Chain of phosphorylation levels of ERK1/2 in AsPC-1 (homozygous KRAS-G12D) cells (P01116 1-186 G12D): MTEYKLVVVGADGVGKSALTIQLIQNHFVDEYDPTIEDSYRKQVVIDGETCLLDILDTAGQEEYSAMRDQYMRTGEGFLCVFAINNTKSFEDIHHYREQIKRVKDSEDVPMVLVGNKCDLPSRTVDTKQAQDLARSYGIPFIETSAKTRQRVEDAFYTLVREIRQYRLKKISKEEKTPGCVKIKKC
row,SMILES,EC50 [µM]
1,"CC(C)CC[C@@H]1NC(=O)[C@H](Cc2ccccc2F)NC(=O)[C@H](CC2CC2)NC(=O)[C@H](Cc2cncnc2)NC(=O)[C@H](C)N(C)C(=O)[C@H](Cc2ccccc2)OC(=O)C23CC(CNC(=O)[C@H](Cc4ccc(F)nc4)N(C)C1=O)(C2)C3 [compound 339, cyclo(FLac-NMeA-PyrimAla-cPrA-Phe2F-hL-NMe3Pal4F-amBCP)] (cyclo([Ala(cPr)][Phe(2-F)][hLeu][X8][X1][PhLac][NMeA][Ala(pyrimidin-5-yl)]))",1.65
2,"CCCC[C@@H]1NC(=O)[C@H](Cc2cccnc2)NC(=O)[C@H](C)N(C)C(=O)[C@H](Cc2ccccc2)OC(=O)CSC[C@@](C)(C(N)=O)NC(=O)[C@H](Cc2cccnc2)N(C)C(=O)[C@H](CCCC)NC(=O)[C@H](Cc2ccccc2F)NC1=O [compound 398, cyclo(FLac-NMeA-3Pal-Nlc-Phe2F-Nle-NMe3Pal-aMeCl-ClAc)] ({CH2CO}-[PhLac][NMeA][3Pal][Nle][Phe(2-F)][Nle][NMe3Pal][αMeC]-NH2; thioether N-8)",40.7
3,"C#CC[C@@H]1NC(=O)[C@H](CC2CC2)NC(=O)[C@H](Cc2cncnc2)NC(=O)[C@H](C)N(C)C(=O)[C@H](Cc2ccccc2)OC(=O)C23CC(CNC(=O)[C@H](Cc4ccccc4)N(C)C(=O)[C@H](CCC(C)C)NC1=O)(C2)C3 [compound 286, cyclo(FLac-NMeA-PyrimAla-cPrA-Pra-hL-NMeF-amBCP)] (cyclo([Ala(cPr)][Pra][hLeu][NMeF][X1][PhLac][NMeA][Ala(pyrimidin-5-yl)]))",30.3
4,"CCCC[C@@H]1NC(=O)[C@H](Cc2ccc(F)nc2)NC(=O)[C@H](C)N(C)C(=O)[C@H](Cc2ccccc2)OC(=O)C23CC(CNC(=O)[C@H](Cc4ccccc4)N(C)C(=O)[C@H](CCC)NC(=O)[C@H](Cc4ccccc4F)NC1=O)(C2)C3 [compound 234, cyclo(FLac-NMeA-4F3Pal-Nle-Phe2F-Nva-NMeF-amBCP)] (cyclo([NMeA][X25][Nle][Phe(2-F)][Nva][NMeF][X1][PhLac]))",> 50.8
5,"CC(C)CC[C@@H]1NC(=O)[C@H](Cc2ccccc2F)NC(=O)[C@H](CC(C)(C)F)NC(=O)[C@H](Cc2cncnc2)NC(=O)[C@H](C)N(C)C(=O)[C@H](Cc2ccccc2)OC(=O)C23CC(CNC(=O)[C@H](Cc4ccccc4)N(C)C1=O)(C2)C3 [compound 136, cyclo(FLac-NMeA-PyrimAla-Leu3F-Phe2F-hL-NMeF-amBCP)] (cyclo([NMeA][Ala(pyrimidin-5-yl)][X40][Phe(2-F)][hLeu][NMeF][X1][PhLac]))",7.73
6,"CC(C)CC[C@@H]1NC(=O)[C@H](Cc2c(F)cccc2F)NC(=O)[C@H](CC2CCC2)NC(=O)[C@H](Cc2cncnc2)NC(=O)[C@H](C)N(C)C(=O)[C@H](Cc2ccccc2)OC(=O)C23CC(CNC(=O)[C@H](Cc4ccccc4)N(C)C1=O)(C2)C3 [compound 226, cyclo(FLac-NMeA-PyrimAla-cBuA-Phe26F2-hL-NMeF-amBCP)] (cyclo([Cba][Phe(2,6-F2)][hLeu][NMeF][X1][PhLac][NMeA][Ala(pyrimidin-5-yl)]))",0.355
7,"CC(C)CC[C@@H]1NC(=O)[C@H](Cc2ccccc2F)NC(=O)[C@H](CC23CC(C2)C3)NC(=O)[C@H](Cc2cncnc2)NC(=O)[C@H](C)N(C)C(=O)[C@H](Cc2ccccc2)OC(=O)C23CC(CNC(=O)[C@H](Cc4ccccc4)N(C)C1=O)(C2)C3 [compound 272, cyclo(FLac-NMeA-PyrimAla-AlaPent-Phe2F-hL-NMeF-amBCP)] (cyclo([NMeA][Ala(pyrimidin-5-yl)][Ala(1-bicyclo(1.1.1)pentyl)][Phe(2-F)][hLeu][NMeF][X1][PhLac]))",2.95
8,"CON=C1C[C@@H](Cc2ccccc2)C(=O)N(C)[C@@H](C)C(=O)N[C@@H](Cc2cncnc2)C(=O)N[C@@H](CC2CC2)C(=O)N[C@@H](Cc2ccccc2F)C(=O)N[C@@H](CCC(C)(F)F)C(=O)N(C)[C@@H](Cc2ccccc2)C(=O)NCC23CC1(C2)C3 (single isomer, unassigned) [compound 178, cyclo(CPhe-NMeA-PyrimAla-cPrA-Phe2F-Nle3F2-NMeF-MeOximamBCP)]",0.128
9,"CCCCC[C@@H]1NC(=O)[C@H](Cc2ccc(OC)cc2)NC(=O)[C@H](CC2CCC2)NC(=O)[C@H](Cc2cccnc2)NC(=O)[C@H](CCCNC(=N)N)NC(=O)[C@H](Cc2ccccc2)NC(=O)CSC[C@@](C)(C(N)=O)NC(=O)[C@H](Cc2cnco2)N(C)C1=O [compound 379, cyclo(F-R-3Pal-cBuA-TyrOMe-Ahp-NMeAla5Oxa-aMeCl-ClAc)] ({CH2CO}-FR[3Pal][Cba]Y(Me)[Ahp(2)][X20][αMeC]-NH2; thioether N-8)",> 50.8
10,"C[C@H]1C(=O)N[C@@H](Cc2cncnc2)C(=O)N[C@@H](CC2CC2)C(=O)N[C@@H](Cc2ccncc2Cl)C(=O)N[C@@H](CCC(C)(C)F)C(=O)N(C)[C@@H](Cc2ccccc2)C(=O)NCC23CC(C2)(C3)C(=O)O[C@@H](Cc2ccccc2)C(=O)N1C [compound 299, cyclo(FLac-NMeA-PyrimAla-cPrA-4Pal2Cl-hL3F-NMeF-amBCP)] (cyclo([Ala(cPr)][X24][X11][NMeF][X1][PhLac][NMeA][Ala(pyrimidin-5-yl)]))",> 50.8
11,"CCCC[C@@H]1NC(=O)[C@H](Cc2ccccc2F)NC(=O)[C@H](CC2CCCC2)NC(=O)[C@H](Cc2cncnc2)NC(=O)[C@H](C)N(C)C(=O)[C@H](Cc2ccccc2)OC(=O)C23CC(CNC(=O)[C@H](Cc4cccnc4)N(C)C1=O)(C2)C3 [compound 126, cyclo(FLac-NMeA-PyrimAla-cPeA-Phe2F-Nle-NMe3Pal-amBCP)] (cyclo([Ala(cPent)][Phe(2-F)][Nle][NMe3Pal][X1][PhLac][NMeA][Ala(pyrimidin-5-yl)]))",17.4
12,"CCCCC[C@@H]1NC(=O)[C@H](Cc2ccc(OC)cc2)NC(=O)[C@H](CC2CCC2)NC(=O)[C@H](Cc2cccnc2)NC(=O)[C@H](CCCNC(=N)N)NC(=O)[C@H](Cc2ccccc2)NC(=O)CSC[C@@](C)(C(N)=O)NC(=O)[C@H](Cc2ccc(C)nc2)N(C)C1=O [compound 377, cyclo(F-R-3Pal-cBuA-TyrOMe-Ahp-NMe3Pal4Me-aMeCl-ClAc)] ({CH2CO}-FR[3Pal][Cba]Y(Me)[Ahp(2)][NMe3Pal(6-Me)][αMeC]-NH2; thioether N-8)",> 50.8
13,"CCCC[C@@H]1NC(=O)[C@H](Cc2ccccc2F)NC(=O)C(CC2CC(F)(F)C2)NC(=O)[C@H](Cc2cncnc2)NC(=O)[C@H](C)N(C)C(=O)[C@H](Cc2ccccc2)OC(=O)C23CC(CNC(=O)[C@H](Cc4cccnc4)N(C)C1=O)(C2)C3 (single isomer, unassigned) [compound 122, cyclo(FLac-NMeA-PyrimAla-rF2Cba-Phe2F-Nle-NMe3Pal-amBCP)]",> 50.8
14,"CCCC[C@@H]1NC(=O)[C@H](Cc2cccnc2)NC(=O)[C@H](C)N(C)C(=O)[C@H](Cc2ccccc2)NC(=O)CSC[C@@](C)(C(N)=O)NC(=O)[C@H](Cc2ccccc2)N(C)C(=O)[C@H](CCCC)NC(=O)[C@H](Cc2ccccc2F)NC1=O [compound 159, cyclo(F-NMeA-3Pal-Nle-Phe2F-Nle-NMeF-aMeCl-ClAc)] ({CH2CO}-F[NMeA][3Pal][Nle][Phe(2-F)][Nle][NMeF][αMeC]-NH2; thioether N-8)",21
15,"CCCC[C@@H]1NC(=O)[C@H](Cc2cncnc2)NC(=O)[C@H](C)N(C)C(=O)[C@H](Cc2ccccc2)OC(=O)C23CC(CNC(=O)[C@H](Cc4cccnc4)N(C)C(=O)[C@H](CCCC)NC(=O)[C@H](Cc4ccccc4F)NC1=O)(C2)C3 [compound 237, cyclo(FLac-NMeA-PyrimAla-Nle-Phe2F-Nle-NMe3Pal-amBCP)] (cyclo([NMe3Pal][X1][PhLac][NMeA][Ala(pyrimidin-5-yl)][Nle][Phe(2-F)][Nle]))",13.4
16,"CC(C)CC[C@@H]1NC(=O)[C@H](Cc2ccccc2F)NC(=O)[C@H](CC2CC2)NC(=O)[C@H](Cc2cncnc2)NC(=O)[C@H](CCC(F)F)N(C)C(=O)[C@H](Cc2ccccc2)OC(=O)C23CC(CNC(=O)[C@H](Cc4ccccc4)N(C)C1=O)(C2)C3 [compound 217, cyclo(FLac-NMeNvaF2-PyrimAla-cPrA-Phe2F-hL-NMeF-amBCP)] (cyclo([Ala(cPr)][Phe(2-F)][hLeu][NMeF][X1][PhLac][NMeNva(5,5-F2)][Ala(pyrimidin-5-yl)]))",1.77
17,"CCCC[C@@H]1NC(=O)[C@H](Cc2cncnc2)NC(=O)[C@H](CCCn2ccnc2)N(C)C(=O)[C@H](Cc2ccccc2)OC(=O)C23CC(CNC(=O)[C@H](Cc4cccnc4)N(C)C(=O)[C@H](CCCC)NC(=O)[C@H](Cc4ccccc4F)OC1=O)(C2)C3 [compound 246, cyclo(FLac-NMeNvalmid-PyrimAla-Nle-F2FLac-Nle-NMe3Pal-amBCP)] (cyclo([NMe3Pal][X1][PhLac][NMeNva(5-imidazol-1-yl)][Ala(pyrimidin-5-yl)][Nle][X2][Nle]))",> 50.8
18,"CCCCC[C@@H]1NC(=O)[C@H](Cc2ccc(OC)cc2)NC(=O)[C@H](CC2CCC2)NC(=O)[C@H](Cc2ccc(N(C)C(=N)NC)cc2)NC(=O)[C@H](CCCNC(=N)N)NC(=O)[C@H](Cc2ccccc2)NC(=O)CSC[C@@](C)(C(N)=O)NC(=O)[C@H](Cc2ccccc2)N(C)C1=O [compound 382, cyclo(F-R-Phe4GnMeMe-cBuA-TyrOMe-Ahp-NMeF-aMeCl-ClAc)]",> 50.8
19,"C[C@H]1C(=O)N[C@@H](Cc2cnn(C3COC3)c2)C(=O)N[C@@H](CC2CC2)C(=O)N[C@@H](Cc2ccccc2F)C(=O)N[C@@H](CCC(C)(F)F)C(=O)N(C)[C@@H](Cc2ccccc2)C(=O)NCC23CC(C2)(C3)C(=O)O[C@@H](Cc2ccccc2)C(=O)N1C [compound 291, cyclo(FLac-NMcA-AlaPyzlOx-cPrA-Phe2F-Nle3F2-NMeF-amBCP)] (cyclo([Ala(cPr)][Phe(2-F)][Nle(5,5-F2)][NMeF][X1][PhLac][NMeA][X6]))",3.25
20,"CCCC[C@@H]1NC(=O)[C@H](Cc2ccccc2F)NC(=O)[C@H](CCN=[N+]=[N-])NC(=O)[C@H](Cc2cccnc2)NC(=O)[C@H](CCCC)N(C)C(=O)[C@H](Cc2ccccc2)OC(=O)C23CC(CNC(=O)[C@H](Cc4cccnc4)N(C)C1=O)(C2)C3 [compound 243, cyclo(FLac-NMeNle-3Pal-DabN3-Phe2F-Nle-NMe3Pal-amBCP)] (cyclo([3Pal][Aha][Phe(2-F)][Nle][NMe3Pal][X1][PhLac][NMeNle]))",21.7
